Results reported in ChEMBL document CHEMBL5370695, “Novel Adenosine Receptor Antagonists for Treating Cancer and Immune-Related Disorders” (ACS Med Chem Lett, 2023).

What was measured:
Adenosine receptor A2b = molecular target: T1, Adenosine receptor A2b (Homo sapiens, UniProt P29275); assay: Binding affinity to recombinant human adenosine A2B receptor expressed in HEK293 cell membrane incubated for 15 to 30 mins by Topcount scintillation counter assay; type: cell membranes
T1 sequence (P29275 whole entry): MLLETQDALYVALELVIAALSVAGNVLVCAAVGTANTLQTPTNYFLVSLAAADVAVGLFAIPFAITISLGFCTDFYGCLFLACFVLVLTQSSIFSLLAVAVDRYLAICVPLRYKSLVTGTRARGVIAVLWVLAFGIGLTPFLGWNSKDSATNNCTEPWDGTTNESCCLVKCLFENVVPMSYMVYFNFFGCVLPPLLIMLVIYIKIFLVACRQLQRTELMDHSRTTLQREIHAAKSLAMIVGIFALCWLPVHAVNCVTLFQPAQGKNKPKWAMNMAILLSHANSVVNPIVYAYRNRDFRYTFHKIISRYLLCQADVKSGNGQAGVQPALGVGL

Adenosine receptor A2a = Adenosine receptor A2a (Homo sapiens, UniProt P29274); assay: Displacement of [3H]-SCH58261 from recombinant human adenosine A2A receptor expressed in HEK293 cell membrane incubated for 15 to 30 mins by Topcount scintillation counter assay; type: cell membranes
Adenosine receptor A2a, sequence (P29274 whole entry): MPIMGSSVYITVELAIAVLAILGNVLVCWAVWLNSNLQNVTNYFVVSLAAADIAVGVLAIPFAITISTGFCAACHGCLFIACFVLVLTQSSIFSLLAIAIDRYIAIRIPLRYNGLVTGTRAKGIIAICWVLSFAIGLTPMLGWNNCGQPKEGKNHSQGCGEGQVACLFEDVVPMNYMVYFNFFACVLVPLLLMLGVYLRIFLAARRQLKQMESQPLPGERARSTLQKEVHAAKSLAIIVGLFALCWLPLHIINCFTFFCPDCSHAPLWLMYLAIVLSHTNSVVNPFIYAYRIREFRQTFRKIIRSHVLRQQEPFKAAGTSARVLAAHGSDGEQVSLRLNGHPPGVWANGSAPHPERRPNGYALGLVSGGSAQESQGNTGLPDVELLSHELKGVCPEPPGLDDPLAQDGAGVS

`COc1cccc2c1nc(N)n1nc(C3CC3c3ccc4c(c3)CCNC4)nc21` (stereo unspecified) was tested. Which IC50 (Adenosine receptor A2b) did it give?
The IC50 was 3.1 nM.

And the IC50 (Adenosine receptor A2a)?
Its IC50 is 1.1 nM.

With `COc1cccc2c1nc(N)n1nc([C@H]3C[C@H](c4ncc(C(C)(C)N)cc4C)C3)nc21` as the compound, how does the IC50 (Adenosine receptor A2b) read?
Its IC50 is 1.6 nM.

Which IC50 (Adenosine receptor A2b) does the source give for `COc1cccc2c1nc(N)n1nc([C@H]3C[C@H](c4ccc(C(C)(C)O)cn4)C3)nc21` here?
The IC50 was 3.3 nM.

Which IC50 (Adenosine receptor A2b) does the source give for `COc1cccc2c1nc(N)n1nc([C@H]3C[C@H](c4ncc(C(C)(C)N)cc4Cl)C3)nc21` here?
Its IC50 is 2.7 nM.

What about the IC50 (Adenosine receptor A2a) of the same compound?
Its IC50 is 0.8 nM.
